ChEMBL document CHEMBL5338754, “Identification of Binding Sites in the Nucleotide-Binding Domain of P-Glycoprotein for a Potent and Nontoxic Modulator, the Amine-Containing Monomeric Flavonoid FM04” (J Med Chem, 2023)

Tests used:
[1] = biological target: ATP-dependent translocase ABCB1 (Homo sapiens, UniProt P08183, C1227A); assay: Negative allosteric modulator activity at human P-gp C1227A mutant expressed in HEK293FT cells assessed as reversal of P-gp mediated PTX resistance by measuring sensitivity fold change incubated for 5 days by MTS assay; assay type: cell-based; settings: 120 h, time 5 day
[2] = biological target: ATP-dependent translocase ABCB1 (Homo sapiens, UniProt P08183, Q1193K); assay: Negative allosteric modulator activity at human P-gp Q1193K mutant expressed in HEK293FT cells assessed as reversal of P-gp mediated PTX resistance by measuring sensitivity fold change incubated for 5 days by MTS assay; assay type: cell-based; settings: 120 h, time 5 day
[3] = biological target: T1, ATP-dependent translocase ABCB1 (Homo sapiens, UniProt P08183, Q1193C); assay: Negative allosteric modulator activity at human P-gp Q1193C mutant expressed in HEK293FT cells assessed as reversal of P-gp mediated PTX resistance by measuring sensitivity fold change incubated for 5 days by MTS assay; assay type: cell-based; settings: 120 h, time 5 day
[4] = biological target: ATP-dependent translocase ABCB1 (Homo sapiens, UniProt P08183, T1226Y); assay: Negative allosteric modulator activity at human P-gp T1226Y mutant expressed in HEK293FT cells assessed as reversal of P-gp mediated PTX resistance by measuring sensitivity fold change incubated for 5 days by MTS assay; assay type: cell-based; settings: 120 h, time 5 day
[5] = biological target: T2, ATP-dependent translocase ABCB1 (Homo sapiens, UniProt P08183, Q1193N); assay: Negative allosteric modulator activity at human P-gp Q1193N mutant expressed in HEK293FT cells assessed as increase in intracellular doxorubicin accumulation using doxorubicin as substrate at 1 uM incubated for 150 mins by microplate reader assay (reference value: 59.7 +/- 2.1 %); assay type: cell-based; settings: 2.5 h
[6] = biological target: T3, ATP-dependent translocase ABCB1 (Homo sapiens, UniProt P08183, G1114L); assay: Negative allosteric modulator activity at human P-gp G1114L mutant expressed in HEK293FT cells assessed as increase in intracellular doxorubicin accumulation using doxorubicin as substrate at 1 uM incubated for 150 mins by microplate reader assay (reference value: 97.9 +/- 4.2 %); assay type: cell-based; settings: 2.5 h
[7] = biological target: ATP-dependent translocase ABCB1 (Homo sapiens, UniProt P08183, I1115W); assay: Negative allosteric modulator activity at human P-gp I1115W mutant expressed in HEK293FT cells assessed as increase in intracellular doxorubicin accumulation using doxorubicin as substrate at 1 uM incubated for 150 mins by microplate reader assay (reference value: 98.4 +/- 1.3 %); assay type: cell-based; settings: 2.5 h
[8] = biological target: ATP-dependent translocase ABCB1 (Homo sapiens, UniProt P08183, I1115N); assay: Negative allosteric modulator activity at human P-gp I1115N mutant expressed in HEK293FT cells assessed as increase in intracellular doxorubicin accumulation using doxorubicin as substrate at 1 uM incubated for 150 mins by microplate reader assay (reference value: 98.6 +/- 4.3 %); assay type: cell-based; settings: 2.5 h
[9] = biological target: ATP-dependent translocase ABCB1 (Homo sapiens, UniProt P08183, I1115M); assay: Negative allosteric modulator activity at human P-gp I1115M mutant expressed in HEK293FT cells assessed as increase in intracellular doxorubicin accumulation using doxorubicin as substrate at 1 uM incubated for 150 mins by microplate reader assay (reference value: 97 +/- 3.1 %); assay type: cell-based; settings: 2.5 h
[10] = biological target: ATP-dependent translocase ABCB1 (Homo sapiens, UniProt P08183, T1226F); assay: Negative allosteric modulator activity at human P-gp T1226F mutant expressed in HEK293FT cells assessed as increase in intracellular doxorubicin accumulation using doxorubicin as substrate at 1 uM incubated for 150 mins by microplate reader assay (reference value: 67.6 +/- 1.9 %); assay type: cell-based; settings: 2.5 h
[11] = biological target: ATP-dependent translocase ABCB1 (Homo sapiens, UniProt P08183, H1195A); assay: Negative allosteric modulator activity at human P-gp H1195A mutant expressed in HEK293FT cells assessed as fold change in intracellular doxorubicin accumulation using doxorubicin as substrate at 1 uM incubated for 150 mins by microplate reader assay relative to DMSO; assay type: cell-based; settings: 2.5 h
[12] = biological target: ATP-dependent translocase ABCB1 (Homo sapiens, UniProt P08183, L1113A); assay: Negative allosteric modulator activity at human P-gp L1113A mutant expressed in HEK293FT cells assessed as fold change in intracellular doxorubicin accumulation using doxorubicin as substrate at 1 uM incubated for 150 mins by microplate reader assay relative to DMSO; assay type: cell-based; settings: 2.5 h
[13] = biological target: ATP-dependent translocase ABCB1 (Homo sapiens, UniProt P08183, Q1193E); assay: Negative allosteric modulator activity at human P-gp Q1193E mutant expressed in HEK293FT cells assessed as fold change in intracellular doxorubicin accumulation using doxorubicin as substrate at 1 uM incubated for 150 mins by microplate reader assay relative to DMSO; assay type: cell-based; settings: 2.5 h
[14] = biological target: T1, ATP-dependent translocase ABCB1; assay: Negative allosteric modulator activity at human P-gp Q1193C mutant expressed in HEK293FT cells assessed as fold change in intracellular doxorubicin accumulation using doxorubicin as substrate at 1 uM incubated for 150 mins by microplate reader assay relative to DMSO; assay type: cell-based; settings: 2.5 h
[15] = biological target: T2, ATP-dependent translocase ABCB1; assay: Negative allosteric modulator activity at human P-gp Q1193N mutant expressed in HEK293FT cells assessed as fold change in intracellular doxorubicin accumulation using doxorubicin as substrate at 1 uM incubated for 150 mins by microplate reader assay relative to DMSO; assay type: cell-based; settings: 2.5 h
[16] = biological target: T3, ATP-dependent translocase ABCB1; assay: Negative allosteric modulator activity at human P-gp G1114L mutant expressed in HEK293FT cells assessed as fold change in intracellular doxorubicin accumulation using doxorubicin as substrate at 1 uM incubated for 150 mins by microplate reader assay relative to DMSO; assay type: cell-based; settings: 2.5 h
[17] = biological target: ATP-dependent translocase ABCB1 (Homo sapiens, UniProt P08183, I1115Y); assay: Negative allosteric modulator activity at human P-gp I1115Y mutant expressed in HEK293FT cells assessed as fold change in intracellular doxorubicin accumulation using doxorubicin as substrate at 1 uM incubated for 150 mins by microplate reader assay relative to DMSO; assay type: cell-based; settings: 2.5 h
[18] = biological target: ATP-dependent translocase ABCB1 (Homo sapiens, UniProt P08183, I1115K); assay: Negative allosteric modulator activity at human P-gp I1115K mutant expressed in HEK293FT cells assessed as fold change in intracellular doxorubicin accumulation using doxorubicin as substrate at 1 uM incubated for 150 mins by microplate reader assay relative to DMSO; assay type: cell-based; settings: 2.5 h
[19] = biological target: ATP-dependent translocase ABCB1 (Homo sapiens, UniProt P08183, T1226W); assay: Negative allosteric modulator activity at human P-gp T1226W mutant expressed in HEK293FT cells assessed as fold change in intracellular doxorubicin accumulation using doxorubicin as substrate at 1 uM incubated for 150 mins by microplate reader assay relative to DMSO; assay type: cell-based; settings: 2.5 h
[20] = biological target: P-gp (ABCB1) Q1193A mutant (Homo sapiens, UniProt P08183, Q1193A); assay: Activation of P-gp ATPase activity in human P-gp Q1193A mutant expressed in HEK293FT cell microsomes assessed as fold change of ATPase activity at 20 uM incubated for 1 hr in presence of ATP by Glo-luminescence based microplate reader assay relative to DMSO; design: species or system Microsome; settings: read-out: FC

T2 sequence (P08183 whole entry Q1193N): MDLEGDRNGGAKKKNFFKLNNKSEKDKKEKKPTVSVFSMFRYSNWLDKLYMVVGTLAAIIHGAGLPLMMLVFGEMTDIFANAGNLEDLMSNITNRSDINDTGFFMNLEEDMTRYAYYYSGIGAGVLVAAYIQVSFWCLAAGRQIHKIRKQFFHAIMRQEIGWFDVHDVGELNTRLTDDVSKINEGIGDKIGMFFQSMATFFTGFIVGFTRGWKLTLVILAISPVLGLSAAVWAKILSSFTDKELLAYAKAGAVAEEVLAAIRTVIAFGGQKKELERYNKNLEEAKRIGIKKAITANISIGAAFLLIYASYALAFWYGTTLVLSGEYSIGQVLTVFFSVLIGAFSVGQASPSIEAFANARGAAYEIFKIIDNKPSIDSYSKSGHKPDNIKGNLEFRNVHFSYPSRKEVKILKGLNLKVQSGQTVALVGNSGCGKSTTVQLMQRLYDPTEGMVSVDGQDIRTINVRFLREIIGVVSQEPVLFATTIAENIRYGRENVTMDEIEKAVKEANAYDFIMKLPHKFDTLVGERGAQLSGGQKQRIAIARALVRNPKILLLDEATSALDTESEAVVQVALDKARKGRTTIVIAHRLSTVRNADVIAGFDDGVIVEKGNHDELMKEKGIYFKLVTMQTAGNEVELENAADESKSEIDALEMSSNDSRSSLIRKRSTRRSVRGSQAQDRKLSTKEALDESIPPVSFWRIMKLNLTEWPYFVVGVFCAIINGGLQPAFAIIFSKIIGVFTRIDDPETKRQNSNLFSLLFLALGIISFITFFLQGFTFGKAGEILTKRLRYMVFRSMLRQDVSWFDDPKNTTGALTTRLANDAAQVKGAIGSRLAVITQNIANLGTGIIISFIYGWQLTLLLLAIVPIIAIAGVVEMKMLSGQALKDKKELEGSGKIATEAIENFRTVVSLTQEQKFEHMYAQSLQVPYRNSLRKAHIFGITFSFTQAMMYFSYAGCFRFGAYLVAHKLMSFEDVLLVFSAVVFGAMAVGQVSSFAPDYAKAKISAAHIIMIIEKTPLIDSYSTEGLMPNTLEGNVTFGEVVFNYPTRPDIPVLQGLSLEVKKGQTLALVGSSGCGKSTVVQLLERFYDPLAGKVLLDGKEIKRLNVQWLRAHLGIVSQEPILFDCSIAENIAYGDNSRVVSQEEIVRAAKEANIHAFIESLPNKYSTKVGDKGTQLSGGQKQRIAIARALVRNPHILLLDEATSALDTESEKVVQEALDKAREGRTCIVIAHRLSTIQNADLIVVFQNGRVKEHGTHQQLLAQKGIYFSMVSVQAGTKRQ
T3 sequence (P08183 whole entry G1114L): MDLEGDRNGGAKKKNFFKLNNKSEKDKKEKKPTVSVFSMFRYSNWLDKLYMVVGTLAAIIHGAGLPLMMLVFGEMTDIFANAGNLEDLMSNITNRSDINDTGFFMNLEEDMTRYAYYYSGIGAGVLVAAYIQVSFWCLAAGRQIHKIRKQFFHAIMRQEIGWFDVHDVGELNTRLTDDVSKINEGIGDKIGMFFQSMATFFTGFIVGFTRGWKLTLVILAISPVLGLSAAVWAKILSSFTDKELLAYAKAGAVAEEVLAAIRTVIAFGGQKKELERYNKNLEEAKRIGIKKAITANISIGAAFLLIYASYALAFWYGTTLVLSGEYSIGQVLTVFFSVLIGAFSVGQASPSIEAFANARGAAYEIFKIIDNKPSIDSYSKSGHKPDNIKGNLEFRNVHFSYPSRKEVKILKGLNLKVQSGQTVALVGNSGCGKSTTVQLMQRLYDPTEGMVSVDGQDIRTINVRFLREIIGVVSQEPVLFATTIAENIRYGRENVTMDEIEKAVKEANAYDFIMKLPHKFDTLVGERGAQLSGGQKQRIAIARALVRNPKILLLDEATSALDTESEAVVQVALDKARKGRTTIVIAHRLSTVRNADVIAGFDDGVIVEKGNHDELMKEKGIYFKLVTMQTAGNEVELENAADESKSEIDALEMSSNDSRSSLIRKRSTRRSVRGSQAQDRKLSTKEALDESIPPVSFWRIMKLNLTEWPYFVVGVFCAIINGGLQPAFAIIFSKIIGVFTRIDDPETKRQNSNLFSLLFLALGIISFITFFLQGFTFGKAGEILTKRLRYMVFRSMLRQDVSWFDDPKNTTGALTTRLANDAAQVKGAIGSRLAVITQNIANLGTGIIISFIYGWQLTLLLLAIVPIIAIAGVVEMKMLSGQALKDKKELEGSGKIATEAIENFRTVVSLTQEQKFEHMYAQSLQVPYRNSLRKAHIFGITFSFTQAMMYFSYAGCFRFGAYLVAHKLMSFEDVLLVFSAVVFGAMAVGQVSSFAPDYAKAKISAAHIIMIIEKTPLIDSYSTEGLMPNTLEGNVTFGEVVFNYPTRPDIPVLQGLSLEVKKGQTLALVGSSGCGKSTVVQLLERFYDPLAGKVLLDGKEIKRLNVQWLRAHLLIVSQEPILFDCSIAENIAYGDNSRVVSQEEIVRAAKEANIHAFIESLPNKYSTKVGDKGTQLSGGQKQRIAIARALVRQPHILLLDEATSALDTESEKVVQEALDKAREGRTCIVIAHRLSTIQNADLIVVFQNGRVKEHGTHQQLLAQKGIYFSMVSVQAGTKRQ
T1 sequence (P08183 whole entry Q1193C): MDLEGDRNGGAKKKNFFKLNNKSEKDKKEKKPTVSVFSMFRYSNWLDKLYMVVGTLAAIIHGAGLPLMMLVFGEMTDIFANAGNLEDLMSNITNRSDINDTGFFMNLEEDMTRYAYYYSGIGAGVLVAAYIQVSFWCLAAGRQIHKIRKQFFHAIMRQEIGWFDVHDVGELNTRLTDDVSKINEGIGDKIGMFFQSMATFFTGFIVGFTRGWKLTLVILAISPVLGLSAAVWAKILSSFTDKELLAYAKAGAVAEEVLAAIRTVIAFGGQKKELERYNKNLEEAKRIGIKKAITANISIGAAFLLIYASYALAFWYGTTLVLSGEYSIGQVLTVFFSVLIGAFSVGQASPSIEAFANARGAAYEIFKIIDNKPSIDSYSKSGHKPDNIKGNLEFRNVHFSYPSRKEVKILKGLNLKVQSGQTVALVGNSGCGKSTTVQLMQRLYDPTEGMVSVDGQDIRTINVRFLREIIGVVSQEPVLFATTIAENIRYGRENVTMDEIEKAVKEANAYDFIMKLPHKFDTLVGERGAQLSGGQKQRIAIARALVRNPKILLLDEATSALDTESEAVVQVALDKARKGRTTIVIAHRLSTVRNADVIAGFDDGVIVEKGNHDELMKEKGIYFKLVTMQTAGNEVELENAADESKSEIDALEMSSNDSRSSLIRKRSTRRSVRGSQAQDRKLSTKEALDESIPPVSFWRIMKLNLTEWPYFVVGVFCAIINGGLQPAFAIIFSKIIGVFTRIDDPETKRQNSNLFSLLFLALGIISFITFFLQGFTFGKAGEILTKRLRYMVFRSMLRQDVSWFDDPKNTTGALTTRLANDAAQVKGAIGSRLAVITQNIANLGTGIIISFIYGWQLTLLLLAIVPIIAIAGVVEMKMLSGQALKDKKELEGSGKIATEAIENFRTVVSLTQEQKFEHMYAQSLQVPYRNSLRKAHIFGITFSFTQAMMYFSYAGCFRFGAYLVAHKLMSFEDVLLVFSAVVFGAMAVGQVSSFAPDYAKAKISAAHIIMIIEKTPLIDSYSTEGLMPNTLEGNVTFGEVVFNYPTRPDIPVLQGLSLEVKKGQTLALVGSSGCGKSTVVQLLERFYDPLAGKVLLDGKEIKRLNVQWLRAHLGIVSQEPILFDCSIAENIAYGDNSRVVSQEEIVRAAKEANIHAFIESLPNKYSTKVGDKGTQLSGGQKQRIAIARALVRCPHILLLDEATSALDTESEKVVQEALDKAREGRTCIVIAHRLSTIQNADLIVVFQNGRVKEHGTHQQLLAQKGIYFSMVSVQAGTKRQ
Sequence of ATP-dependent translocase ABCB1 (Homo sapiens, UniProt P08183, I1115Y) (P08183 whole entry I1115Y): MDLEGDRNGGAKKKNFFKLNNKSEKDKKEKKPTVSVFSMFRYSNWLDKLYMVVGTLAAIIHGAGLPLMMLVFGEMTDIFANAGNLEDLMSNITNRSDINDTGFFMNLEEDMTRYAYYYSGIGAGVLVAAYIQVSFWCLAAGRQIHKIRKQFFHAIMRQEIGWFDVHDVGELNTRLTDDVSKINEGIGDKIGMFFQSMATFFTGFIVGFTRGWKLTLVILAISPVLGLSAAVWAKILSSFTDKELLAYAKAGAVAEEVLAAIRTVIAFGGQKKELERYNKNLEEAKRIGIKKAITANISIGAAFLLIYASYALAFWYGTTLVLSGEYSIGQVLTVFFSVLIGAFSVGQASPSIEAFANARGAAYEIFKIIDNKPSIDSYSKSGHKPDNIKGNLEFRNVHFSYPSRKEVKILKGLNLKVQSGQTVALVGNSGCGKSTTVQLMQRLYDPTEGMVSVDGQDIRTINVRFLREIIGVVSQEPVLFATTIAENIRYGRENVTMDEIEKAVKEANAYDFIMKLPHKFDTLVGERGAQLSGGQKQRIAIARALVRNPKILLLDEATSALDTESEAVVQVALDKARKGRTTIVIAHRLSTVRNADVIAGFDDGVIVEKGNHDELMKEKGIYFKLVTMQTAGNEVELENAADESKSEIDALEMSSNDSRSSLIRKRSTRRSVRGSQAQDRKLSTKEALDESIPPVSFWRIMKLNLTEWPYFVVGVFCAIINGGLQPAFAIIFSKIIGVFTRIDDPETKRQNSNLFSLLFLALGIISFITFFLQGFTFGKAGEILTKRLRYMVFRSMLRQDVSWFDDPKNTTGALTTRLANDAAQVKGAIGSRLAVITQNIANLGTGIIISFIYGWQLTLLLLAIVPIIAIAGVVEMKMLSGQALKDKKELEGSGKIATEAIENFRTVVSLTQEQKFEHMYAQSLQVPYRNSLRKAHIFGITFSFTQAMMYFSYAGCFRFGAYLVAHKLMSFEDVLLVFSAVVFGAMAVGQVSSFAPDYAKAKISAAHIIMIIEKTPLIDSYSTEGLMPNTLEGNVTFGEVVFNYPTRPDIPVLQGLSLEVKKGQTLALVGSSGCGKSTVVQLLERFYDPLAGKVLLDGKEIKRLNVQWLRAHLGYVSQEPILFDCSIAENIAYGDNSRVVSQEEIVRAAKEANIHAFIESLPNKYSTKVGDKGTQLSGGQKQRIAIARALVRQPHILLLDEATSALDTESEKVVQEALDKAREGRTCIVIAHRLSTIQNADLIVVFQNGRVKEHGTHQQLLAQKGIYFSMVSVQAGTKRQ

fold change (FC) [1]: 67.7 | fold change (FC) [2]: 9.4 | fold change (FC) [3]: 12.4 | fold change (FC) [4]: 62.4 | Activity [5]: 91.9% | Activity [6]: 95% | Activity [7]: 99% | Activity [8]: 94.1% | Activity [9]: 93.3% | Activity [10]: 100.3% | fold change (FC) [11]: 1.1 | fold change (FC) [12]: 1.8 | fold change (FC) [13]: 1.1 | fold change (FC) [14]: 1.3 | fold change (FC) [15]: 1.5 | fold change (FC) [16]: 1 | fold change (FC) [17]: 1 | fold change (FC) [18]: 1 | fold change (FC) [19]: 1.5 | fold induction at 1 h, 20 µM [20]: 1.1
Compound: O=c1cc(-c2ccc(OCCOCCNCc3ccccc3)cc2)oc2ccccc12
